# Laboratory results reported in US10457707B2, “Substituted urea depsipeptide analogs as activators of the CLPP endopeptidase” (priority 2015, dated 2019).
# Where two headings read alike, the source gives them in different places. *1 amine or outer side, *2 acyl side, *3 side chain or, on linkers, in order; H or OH if unused. Where a SMILES comes first, the peptide text is derived from it. Bridges are numbered along the chain shown (N, C = ends). [ ]: non-standard residue; d: D form. The star is where a group is joined. ξ: configuration not given here. NH(1,3-benzodioxol-5-yl) = c1cc2c(cc1N*)OCO2; Phe(3,5-F2) = N[C@@H](Cc1cc(F)cc(F)c1)C(=O)O; Morpholine(3S-CO) = O=C(O)[C@@H]1COCCN1; NH(4-Cl-2-F-phenyl) = Fc1cc(Cl)ccc1N*; Pro(4R-Me) = C[C@H]1CN[C@H](C(=O)O)C1; ξPro(4R-OH) = O=C(O)C1C[C@@H](O)CN1; NMeaThr = CN[C@H](C(=O)O)[C@H](C)O; ξPro(4R-Me) = C[C@H]1CNC(C(=O)O)C1; Hyp = O=C(O)[C@@H]1C[C@@H](O)CN1; NH(4-Et-phenyl) = CCc1ccc(N*)cc1; NH(4-Me-phenyl) = Cc1ccc(N*)cc1; ξNMeThr = CNC(C(=O)O)[C@@H](C)O; aThr = C[C@H](O)[C@H](N)C(=O)O; Pip = O=C(O)[C@@H]1CCCCN1; NMeA = CN[C@@H](C)C(=O)O; X2 = CN1CCc2ccc(N*)cc21; CO = O=C([*:1])[*:2]
# How the values were obtained:
# Format in all cases: cell-based
# [1] = test system: Staphylococcus aureus, ATCC 29213; test: Minimal inhibitory concentration assay (microbroth dilution); conditions: ATCC29213, read-out: Minimal Inhibitory Concentrations S. aureus ATCC 29213
# How it was run: (§1)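 CLSI broth microdilution: two-fold compound dilutions from 200 μM final, ~10^5 cfu/mL inoculum, aerobic overnight incubation at 37 °C. MIC read visually as lowest concentration preventing growth; S. aureus USA 300 compared with its ClpP-inactivated counterpart to check ClpP dependence.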
# [2] = test system: Staphylococcus aureus, NRS70; test: as above
# How it was run: as §1
# [3] = test system: Bacillus subtilis, ATCC 23857; test: as above
# How it was run: as §1
# [4] = test system: Streptococcus pneumoniae, R6; test: Minimal inhibitory concentration assay; conditions: read-out: Minimal Inhibitory Concentrations S. pneumoniae R6
# How it was run: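 Microbroth dilution with two-fold serial compound dilutions in broth, incubated aerobically overnight at 37° C. MIC taken as the lowest concentration preventing bacterial growth.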
# [5] = Staphylococcus aureus, NRS70, read-out: Minimal Inhibitory Concentrations S. aureus NRS70
# [6] = Bacillus subtilis, ATCC23857, read-out: Minimal Inhibitory Concentrations B. subtilis ATCC 23857
# [7] = Staphylococcus aureus, NRS70; read-out: Minimal Inhibitory Concentrations S. aureus NRS70
# [8] = Bacillus subtilis, ATCC23857; read-out: Minimal Inhibitory Concentrations B. subtilis ATCC 23857
Compound,MIC [1] [µM],"MIC [2, 5] [µM]","MIC [3, 6] [µM]",MIC [4] [µM],"MIC [2, 7] [µM]","MIC [3, 8] [µM]"
"Cc1ccc(NC(=O)N[C@@H](Cc2cc(F)cc(F)c2)C(=O)N[C@@H]2C(=O)N3C[C@H](O)CC3C(=O)N(C)[C@@H](C)C(=O)N[C@@H](C)C(=O)N3C[C@H](C)CC3C(=O)O[C@H]2C)cc1 (stereo partly drawn) [Compound 31, (S)-3-(3,5-difluorophenyl)-N-((2S,6S,9S,11aS,13R,17S,18S,20aS)-13-hydroxy-2,6,9,10,18-pentamethyl-5,8,11,16,20-pentaoxohexadecahydro-1H,5H,16H-dipyrrolo[2,1-c:2′,1′-l][1]oxa[4,7,10,13]tetraazacyclohexadecin-17-yl)-2-(3-(p-tolyl)ureido)propanamide] ({NH(4-Me-phenyl)-CO}-[Phe(3,5-F2)][aThr][ξPro(4R-OH)][NMeA]A[ξPro(4R-Me)]; ester 2-C)",0.39,0.39,0.39,0.195,–,–
"Cc1ccc(NC(=O)N[C@@H](Cc2cc(F)cc(F)c2)C(=O)N[C@@H]2C(=O)N3CCC[C@H]3C(=O)N(C)[C@@H]([C@H](C)O)C(=O)N[C@@H](C)C(=O)N3C[C@H](C)C[C@H]3C(=O)O[C@H]2C)cc1 [Compound 208, (S)-3-(3,5-difluorophenyl)-N-((2R,6S,9S,11aS,17S,18S,20aS)-9-((S)-1-hydroxyethyl)-2,6,10,18-tetramethyl-5,8,11,16,20-pentaoxohexadecahydro-1H,5H,16H-dipyrrolo[2,1-c:2′,1′-l][1]oxa[4,7,10,13]tetraazacyclohexadecin-17-yl)-2-(3-(p-tolyl)ureido)propanamide] ({NH(4-Me-phenyl)-CO}-[Phe(3,5-F2)][aThr]P[NMeaThr]A[Pro(4R-Me)]; ester 2-C)",0.05,–,0.05,0.02,–,–
"Cc1ccc(NC(=O)N[C@@H](Cc2cc(F)cc(F)c2)C(=O)N[C@@H]2C(=O)N3CCC[C@H]3C(=O)N3CCCC[C@H]3C(=O)N[C@@H](C)C(=O)N3C[C@H](C)C[C@H]3C(=O)O[C@H]2C)cc1 [Compound 209, (S)-3-(3,5-difluorophenyl)-2-(3-(p-tolyl)ureido)-N-((2R,6S,8aS,14aS,20S,21S,23aS)-2,6,21-trimethyl-5,8,14,19,23-pentaoxooctadecahydro-1H,5H,14H,19H-pyrido[2,1-i]dipyrrolo[2,1-c:2′,1′-l][1]oxa[4,7,10,13]tetraazacyclohexadecin-20-yl)propanamide] ({NH(4-Me-phenyl)-CO}-[Phe(3,5-F2)][aThr]P[Pip]A[Pro(4R-Me)]; ester 2-C)",0.05,–,0.05,0.05,–,–
"C[C@@H]1C[C@H]2C(=O)O[C@@H](C)[C@H](NC(=O)[C@H](Cc3cc(F)cc(F)c3)NC(=O)Nc3ccc4c(c3)OCO4)C(=O)N3C[C@H](O)C[C@H]3C(=O)N3CCOC[C@H]3C(=O)N[C@@H](C)C(=O)N2C1 [Compound 319, (S)-2-(3-(benzo[d][1,3]dioxol-5-yl)ureido)-3-(3,5-difluorophenyl)-N-((6aS,8R,12S,13S,15aS,17R,21S,23aS)-8-hydroxy-13,17,21-trimethyl-6,11,15,20,23-pentaoxooctadecahydro-6H,11H,15H-[1,4]oxazino[3,4-i]dipyrrolo[2,1-c:2′,1′-l][1]oxa[4,7,10,13]tetraazacyclo-hexadecin-12-yl)propanamide] ({NH(1,3-benzodioxol-5-yl)-CO}-[Phe(3,5-F2)][aThr][Hyp][Morpholine(3S-CO)]A[Pro(4R-Me)]; ester 2-C)",2.5,–,–,–,5,10
"CCc1ccc(NC(=O)N[C@@H](Cc2cc(F)cc(F)c2)C(=O)N[C@@H]2C(=O)N3C[C@H](O)C[C@H]3C(=O)N3CCOC[C@H]3C(=O)N[C@@H](C)C(=O)N3C[C@H](C)C[C@H]3C(=O)O[C@H]2C)cc1 [Compound 320, (S)-3-(3,5-difluorophenyl)-2-(3-(4-ethylphenyl)ureido)-N-((6aS,8R,12S,13S,15aS,17R,21S,23aS)-8-hydroxy-13,17,21-trimethyl-6,11,15,20,23-pentaoxooctadecahydro-6H,11H,15H-[1,4]oxazino[3,4-i]dipyrrolo[2,1-c:2′,1′-l][1]oxa[4,7,10,13]-tetraazacyclohexadecin-12-yl)propanamide] ({NH(4-Et-phenyl)-CO}-[Phe(3,5-F2)][aThr][Hyp][Morpholine(3S-CO)]A[Pro(4R-Me)]; ester 2-C)",0.156,–,–,–,0.156,0.625
"C[C@@H]1C[C@H]2C(=O)O[C@@H](C)[C@H](NC(=O)[C@H](Cc3cc(F)cc(F)c3)NC(=O)Nc3ccc4c(c3)N(C)CC4)C(=O)N3CCC[C@H]3C(=O)N3CCCC[C@H]3C(=O)N[C@@H](C)C(=O)N2C1 [Compound 321, (S)-3-(3,5-difluorophenyl)-2-(3-(1-methylindolin-6-yl)ureido)-N-((2R,6S,8aS,14aS,20S,21S,23aS)-2,6,21-trimethyl-5,8,14,19,23-pentaoxooctadecahydro-1H,5H,14H,19H-pyrido[2,1-i]dipyrrolo[2,1-c:2′,1′-l][1]oxa[4,7,10,13]tetraazacyclo-hexadecin-20-yl)propanamide] ({X2-CO}-[Phe(3,5-F2)][aThr]P[Pip]A[Pro(4R-Me)]; ester 2-C)",0.313,0.156,0.313,–,–,–
"Cc1ccc(NC(=O)N[C@@H](Cc2cc(F)cc(F)c2)C(=O)N[C@H]2COC(=O)[C@@H]3C[C@@H](C)CN3C(=O)[C@H](C)NC(=O)C([C@@H](C)O)N(C)C(=O)[C@@H]3CCCN3C2=O)cc1 (stereo partly drawn) [Compound 322, (S)-3-(3,5-difluorophenyl)-N-((2R,6S,9R,11aS,17S,20aS)-9-((R)-1-hydroxyethyl)-2,6,10-trimethyl-5,8,11,16,20-pentaoxohexadecahydro-1H,5H,16H-dipyrrolo[2,1-c:2′,1′-l][1]oxa[4,7,10,13]tetraazacyclohexadecin-17-yl)-2-(3-(p-tolyl)ureido)propanamide] ({NH(4-Me-phenyl)-CO}-[Phe(3,5-F2)]SP[ξNMeThr]A[Pro(4R-Me)]; ester 2-C)",–,0.313,0.078,0.156,–,–
"C[C@@H]1C[C@H]2C(=O)O[C@@H](C)[C@H](NC(=O)[C@H](Cc3cc(F)cc(F)c3)NC(=O)Nc3ccc(Cl)cc3F)C(=O)N3C[C@H](O)C[C@H]3C(=O)N3CCCC[C@H]3C(=O)N[C@@H](C)C(=O)N2C1 [Compound 329, (S)-2-(3-(4-chloro-2-fluorophenyl)ureido)-3-(3,5-difluorophenyl)-N-((2R,6S,8aS,14aS,16R,20S,21S,23aS)-16-hydroxy-2,6,21-trimethyl-5,8,14,19,23-pentaoxooctadecahydro-1H,5H,14H,19H-pyrido[2,1-i]dipyrrolo[2,1-c:2′,1′-l][1]oxa[4,7,10,13]tetraazacyclo-hexadecin-20-yl)propanamide] ({NH(4-Cl-2-F-phenyl)-CO}-[Phe(3,5-F2)][aThr][Hyp][Pip]A[Pro(4R-Me)]; ester 2-C)",0.078,–,–,–,0.039,0.039
